Results published in patent US9062041B2 (Bayer Intellectual Property GmbH, priority 2011, dated 2015).

What was measured:
Type in all cases: cell-based
human PGD receptor = molecular target: T1, human PGD receptor (Homo sapiens, UniProt Q13258); assay: cAMP antagonism test on the human prostaglandin D receptor (HTRF cAMP detection); details: selectivity towards hDP, IC50 measured by cAMP antagonism test
T1 sequence (Q13258 1-359): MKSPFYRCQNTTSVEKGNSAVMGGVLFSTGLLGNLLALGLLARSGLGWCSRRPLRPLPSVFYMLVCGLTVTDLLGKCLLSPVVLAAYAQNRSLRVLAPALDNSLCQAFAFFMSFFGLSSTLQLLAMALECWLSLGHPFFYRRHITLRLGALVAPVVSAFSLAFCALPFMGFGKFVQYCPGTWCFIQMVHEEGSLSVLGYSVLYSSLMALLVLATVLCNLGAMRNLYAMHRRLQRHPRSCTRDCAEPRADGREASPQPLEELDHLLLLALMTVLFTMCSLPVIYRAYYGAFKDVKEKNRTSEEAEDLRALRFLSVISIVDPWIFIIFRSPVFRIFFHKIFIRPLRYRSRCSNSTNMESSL
Outline: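 Cells pre-mixed with cAMP-d2 were preincubated with compound (0.8 nM–16.5 μM) for 20 min at RT, then stimulated with 3× PGD2 solution (6 nM, in PBS-IBMX) for 30 min at RT. After lysis (20 min), HTRF read at 665/620 nm; antagonism seen as rise in FRET ratio.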

[1] = molecular target: EP4 subtype of the human PGE2 receptor (Homo sapiens, UniProt P35408); assay: cAMP antagonism test on the human EP4 receptor (HTRF cAMP detection); details: selectivity towards hEP4, IC50 measured by cAMP antagonism test
Sequence of EP4 subtype of the human PGE2 receptor (P35408 whole entry): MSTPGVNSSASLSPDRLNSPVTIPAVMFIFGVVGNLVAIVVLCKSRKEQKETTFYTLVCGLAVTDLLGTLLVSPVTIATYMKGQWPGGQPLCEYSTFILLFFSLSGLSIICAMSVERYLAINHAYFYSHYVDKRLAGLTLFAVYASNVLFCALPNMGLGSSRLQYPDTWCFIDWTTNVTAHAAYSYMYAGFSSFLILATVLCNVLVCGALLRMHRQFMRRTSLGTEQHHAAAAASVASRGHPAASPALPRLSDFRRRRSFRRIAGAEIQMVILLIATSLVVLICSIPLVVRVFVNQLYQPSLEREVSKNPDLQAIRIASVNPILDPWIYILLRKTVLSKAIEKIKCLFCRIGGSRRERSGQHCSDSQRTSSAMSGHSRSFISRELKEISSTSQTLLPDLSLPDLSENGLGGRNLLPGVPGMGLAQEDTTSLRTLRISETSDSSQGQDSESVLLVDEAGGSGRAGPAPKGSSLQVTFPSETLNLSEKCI
Outline: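 Cells expressing human EP4 preincubated 20 min at RT with compound (0.8 nM–16.5 μM), then stimulated with PGE2 (0.3 nM in 3× solution, with IBMX) 60 min at RT. After lysis, cAMP measured by HTRF competition (665/620 nm ratio); antagonism seen as rise in FRET signal.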

[2] = molecular target: EP2 subtype of the human PGE2 receptor (Homo sapiens, UniProt P43116); assay: cAMP antagonism test on the human EP2 receptor (HTRF cAMP detection); details: hEP2 receptor, read-out: Antagonism hEP2 IC50
Sequence of EP2 subtype of the human PGE2 receptor (P43116 whole entry): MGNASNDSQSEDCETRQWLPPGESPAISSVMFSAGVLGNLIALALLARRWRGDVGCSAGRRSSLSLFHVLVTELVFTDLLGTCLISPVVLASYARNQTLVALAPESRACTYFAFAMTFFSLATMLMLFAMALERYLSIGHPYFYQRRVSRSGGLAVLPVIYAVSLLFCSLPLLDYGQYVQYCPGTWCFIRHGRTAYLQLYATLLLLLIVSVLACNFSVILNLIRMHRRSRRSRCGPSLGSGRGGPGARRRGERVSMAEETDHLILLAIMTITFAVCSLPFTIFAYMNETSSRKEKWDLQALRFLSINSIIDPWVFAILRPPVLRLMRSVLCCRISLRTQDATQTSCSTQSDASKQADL
Outline: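 Cells expressing human EP2 preincubated 20 min at RT with compound (0.8 nM–16.5 μM), then stimulated 60 min with PGE2 (3× solution 1.5 nM) in PBS-IBMX. After 20 min lysis, cAMP measured by competitive HTRF with cAMP-d2 and Eu cryptate anti-cAMP antibody (665/620 nm ratio).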

SMILES	Selectivity hEP2/hDP (human PGD receptor)	Selectivity hEP2/hEP4 [1]	IC50 [2]
COCCNC(=O)c1cc2cn(CC3CN(C(=O)c4ccc(Cl)cc4F)C3)nc2cc1C [Example 183, 2-{[1-(4-chloro-2-fluorobenzoyl)azetidin-3-yl]methyl}-N-(2-methoxyethyl)-6-methyl-2H-indazol-5-carboxamide]	xxx (xxx > 100)	xxx (xxx > 100)	0.0466 µM
Cc1c(C(=O)NCCS(C)(=O)=O)ccc2nn(CC3CCN(C(=O)c4ccc(Br)cc4)CC3)cc12 [Example 395, 2-{[1-(4-bromobenzoyl)piperidin-4-yl]methyl}-N-(2-mesylethyl)-4-methyl-2H-indazol-5-carboxamide]	xxx (xxx > 100)	xxx (xxx > 100)	0.0304 µM
COCCNC(=O)c1ccc2nn(CC3CN(C(=O)c4ccc(C(F)(F)F)cc4F)C3)cc2c1OC [Example 255, 2-({1-[2-fluoro-4-(trifluoromethyl)benzoyl]azetidin-3-yl}methyl)-4-methoxy-N-(2-methoxyethyl)-2H-indazol-5-carboxamide]	xxx (xxx > 100)	xxx (xxx > 100)	0.0835 µM
Cc1c(C(=O)NCC(F)(F)F)ccc2nn(CC3CCN(C(=O)c4ccc(Oc5ccc(C(F)(F)F)cn5)cc4)CC3)cc12 [Example 301, 4-methyl-N-(2,2,2-trifluoroethyl)-2-{[1-(4-{[5-(trifluoromethyl)pyridin-2-yl]-oxy}benzoyl)piperidin-4-yl]methyl}-2H-indazol-5-carboxamide]	xxx (xxx > 100)	xxx (xxx > 100)	0.0245 µM
CCOc1c(C(=O)NCCOC)ccc2nn(CC3CN(C(=O)c4ccc(Cl)cc4)C3)cc12 [Example 276, 2-{[1-(4-chlorobenzoyl)azetidin-3-yl]methyl}-4-ethoxy-N-(2-methoxyethyl)-2H-indazol-5-carboxamide]	xx (xx: 10-100)	xx (xx: 10-100)	0.226 µM
COCCNC(=O)c1ccc2nn(CC3CN(C(=O)c4ccc(-c5ccc(F)cc5)cc4)C3)cc2c1C [Example 158, 2-({1-[(4′-fluorobiphenyl-4-yl)carbonyl]azetidin-3-yl}methyl)-N-(2-methoxy-ethyl)-4-methyl-2H-indazol-5-carboxamide]	xxx (xxx > 100)	xxx (xxx > 100)	0.00621 µM
Cc1c(C(=O)NCC(F)(F)F)ccc2nn(CC3CCN(C(=O)c4ccc(Oc5ccc(Cl)cc5)cc4)CC3)cc12 [Example 284, 2-({1-[4-(4-chlorophenoxy)benzoyl]piperidin-4-yl}methyl)-4-methyl-N-(2,2,2-trifluoroethyl)-2H-indazol-5-carboxamide]	xxx (xxx > 100)	xxx (xxx > 100)	0.0564 µM
Cc1cc2nn(CC3CN(C(=O)c4ccc(Oc5ccc(F)cc5)cc4)C3)cc2cc1C(=O)NCCSC(F)(F)F [Example 199, 2-({1-[4-(4-fluorophenoxy)benzoyl]azetidin-3-yl}methyl)-6-methyl-N-{2-[(trifluoromethyl)sulphanyl]ethyl}-2H-indazol-5-carboxamide]	xxx (xxx > 100)	xxx (xxx > 100)	0.0971 µM
COCCNC(=O)c1ccc2nn(CC3CCN(C(=O)c4ccc(Oc5cccc(C(F)(F)F)c5)cc4)CC3)cc2c1C [Example 355, N-(2-methoxyethyl)-4-methyl-2-[(1-{4-[3-(trifluoromethyl)phenoxy]benzoyl}-piperidin-4-yl)methyl]-2H-indazol-5-carboxamide]	xxx (xxx > 100)	xxx (xxx > 100)	0.00539 µM
COCCNC(=O)c1ccc2nn(CC3CCN(C(=O)c4ccc(-c5cccc(C(F)(F)F)n5)cc4)CC3)cc2c1C [Example 369, N-(2-methoxyethyl)-4-methyl-2-[(1-{4-[6-(trifluoromethyl)pyridin-2-yl]-benzoyl}piperidin-4-yl)methyl]-2H-indazol-5-carboxamide]	xxx (xxx > 100)	xxx (xxx > 100)	0.00566 µM
